Measured values taken from patent US20050245399A1, “Pyrazole derivatives as herbicidal compositions containing them” (ISHIHARA SANGYO KAISHA, LTD., priority 2004, published 2005).

Key:
Assay type in all cases: in vivo
[1] = system: barnyardgrass (Echinochloa crus-galli L.): ECHCG; experiment: Test Example 1 pre-emergence herbicidal activity, ECHCG; conditions: Rate 63 g a.i./ha, visually observed 20th to 23rd day after application
How it was run: (§1)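 pots, upland field soil; sow; +1 d spray compound (WP or EC, a.i. at set dose, 500 L/ha water), pre-emergence; visual % growth control d20–23 (0 untreated, 100 complete kill).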

[2] = system: crabgrass (Digitaria sanguinalis L.): DIGSA; experiment: Test Example 1 pre-emergence herbicidal activity, DIGSA; conditions: Rate 63 g a.i./ha, visually observed 20th to 23rd day after application
How it was run: as §1

[3] = system: green foxtail (Setaria viridis L.): SETVI; experiment: Test Example 1 pre-emergence herbicidal activity, SETVI; conditions: Rate 63 g a.i./ha, visually observed 20th to 23rd day after application
How it was run: as §1

[4] = system: redroot pigweed (Amaranthus retroflexus L.): AMARE; experiment: Test Example 1 pre-emergence herbicidal activity, AMARE; conditions: Rate 63 g a.i./ha, visually observed 20th to 23rd day after application
How it was run: as §1

[5] = system: prickly sida (Sida spinosa L.): SEDSP; experiment: Test Example 1 pre-emergence herbicidal activity, SIDSP; conditions: Rate 63 g a.i./ha, visually observed 20th to 23rd day after application
How it was run: as §1

[6] = system: velvetleaf (Abutilon theophrasti): ABUTH; experiment: Test Example 1 pre-emergence herbicidal activity, ABUTH; conditions: Rate 63 g a.i./ha, visually observed 20th to 23rd day after application
How it was run: as §1

[7] = system: rice (Oryza sativa L.): ORYSA; experiment: Test Example 1 pre-emergence herbicidal activity, ORYSA; conditions: Rate 63 g a.i./ha, visually observed 20th to 23rd day after application
How it was run: as §1

[8] = system: wheat (Triticum aestivum L.): TRZAX; experiment: Test Example 1 pre-emergence herbicidal activity, TRZAX; conditions: Rate 63 g a.i./ha, visually observed 20th to 23rd day after application
How it was run: as §1

[9] = system: corn (Zea mays L.): ZEAMX; experiment: Test Example 1 pre-emergence herbicidal activity, ZEAMX; conditions: Rate 63 g a.i./ha, visually observed 20th to 23rd day after application
How it was run: as §1

[10] = system: soybean (Glycine max Merr.): GLXMA; experiment: Test Example 1 pre-emergence herbicidal activity, GLXMA; conditions: Rate 63 g a.i./ha, visually observed 20th to 23rd day after application
How it was run: as §1

[11] = system: barnyardgrass (Echinochloa crus-galli L.), ECHCG; experiment: Test Example 2 post-emergence (foliage treatment) herbicidal activity, ECHCG; conditions: 63 g a.i./ha
Source text: (§2) Upland field soil was put into a 1/170,000 ha pot, and seeds of various plants were sown. Then, when the plants reached predetermined leaf stages {1. barnyardgrass (Echinochloa crus-galli L.), ECHCG: 1.1-2.1 leaf stage, 2. crabgrass (Digitaria sanguinalis L.), DIGSA: 1.0-2.0 leaf stage, 3. green foxtail (Setaria viridis L.), SETVI: 1.0-2.2 leaf stage, 4. redroot pigweed (Amaranthus retroflexus L.), AMARE: 0.1-1.5 leaf stage, 5. prickly sida (Sida spinosa L.), SIDSP: 0.1-0.6 leaf stage, 6. velvetleaf (Abutilon theophrasti), ABUTH: 0.1-0.6 leaf stage, 7. common cocklebur (Xanthium strumarium L.), XANST: 0.1 leaf stage, 8. rice (Oryza sativa L.), ORYSA; 1.0-2 leaf stage, 9. wheat (Triticum aestivum L.), TRZAX: 2.3-3.5 leaf stage, 10. corn (Zea mays L.), ZEAMXN 2.1-2.6 leaf stage, 11. soybean (Glycine max Merr.), GLXMA: primary leaf stage}, a wettable powder or emulsifiable concentrate having the compound of the present invention formulated in accordance with a usual formulation method, was weighed so that the active ingredient would be a predetermined amount, and diluted with water in an amount of 500 L/ha. To the diluted solution, 0.1% (v/v) of an agricultural spreader was added. The herbicide adjusted was applied by a small size sprayer for foliage treatment. On the 20th to 23rd day after the application of the herbicide, the growth of the respective plants was visually observed, and the herbicidal effects were evaluated by growth controlling degrees (%) ranging from 0 (equivalent to the untreated control) to 100 (complete kill), whereby the results shown in Table 5, were obtained. Compound Nos. in Table 5 correspond to Compound Nos. in Table 1 and 2 given hereinbefore.

[12] = system: crabgrass (Digitaria sanguinalis L.), DIGSA; experiment: Test Example 2 post-emergence (foliage treatment) herbicidal activity, DIGSA; conditions: 63 g a.i./ha
Source text: as §2

[13] = system: green foxtail (Setaria viridis L.), SETVI; experiment: Test Example 2 post-emergence (foliage treatment) herbicidal activity, SETVI; conditions: 63 g a.i./ha
Source text: as §2

[14] = system: redroot pigweed (Amaranthus retroflexus L.), AMARE; experiment: Test Example 2 post-emergence (foliage treatment) herbicidal activity, AMARE; conditions: 63 g a.i./ha
Source text: as §2

[15] = system: velvetleaf (Abutilon theophrasti), ABUTH; experiment: Test Example 2 post-emergence (foliage treatment) herbicidal activity, ABUTH; conditions: 63 g a.i./ha
Source text: as §2

[16] = system: rice (Oryza sativa L.), ORYSA; experiment: Test Example 2 post-emergence (foliage treatment) herbicidal activity, ORYSA; conditions: 63 g a.i./ha
Source text: as §2

[17] = system: wheat (Triticum aestivum L.), TRZAX; experiment: Test Example 2 post-emergence (foliage treatment) herbicidal activity, TRZAX; conditions: 63 g a.i./ha
Source text: as §2

[18] = system: corn (Zea mays L.), ZEAMX; experiment: Test Example 2 post-emergence (foliage treatment) herbicidal activity, ZEAMX; conditions: 63 g a.i./ha
Source text: as §2

[19] = system: soybean (Glycine max Merr.), GLXMA; experiment: Test Example 2 post-emergence (foliage treatment) herbicidal activity, GLXMA; conditions: 63 g a.i./ha
Source text: as §2

| Compound | Pre-emergence Herbicidal Activity ECHCG (growth controlling degree) [1] [%] | Pre-emergence Herbicidal Activity DIGSP (growth controlling degree) [2] [%] | Pre-emergence Herbicidal Activity SETVI (growth controlling degree) [3] [%] | Pre-emergence Herbicidal Activity AMARE (growth controlling degree) [4] [%] | Pre-emergence Herbicidal Activity SIDSP (growth controlling degree) [5] [%] | Pre-emergence Herbicidal Activity ABUTH (growth controlling degree) [6] [%] | Pre-emergence Herbicidal Activity ORYSA (growth controlling degree) [7] [%] | Pre-emergence Herbicidal Activity TRZAX (growth controlling degree) [8] [%] | Pre-emergence Herbicidal Activity ZEAMX (growth controlling degree) [9] [%] | Pre-emergence Herbicidal Activity GLXMA (growth controlling degree) [10] [%] | growth controlling degree, ECHCO [11] [%] | growth controlling degree, DIGSP [12] [%] | growth controlling degree, SETVI [13] [%] | growth controlling degree, AMARE [14] [%] | growth controlling degree, ABUTH [15] [%] | growth controlling degree, ORYSA [16] [%] | growth controlling degree, TRZAX [17] [%] | growth controlling degree, ZEAMX [18] [%] | growth controlling degree, GLXMA [19] [%] |
| --- | --- | --- | --- | --- | --- | --- | --- | --- | --- | --- | --- | --- | --- | --- | --- | --- | --- | --- | --- |
| COc1c(Cl)cc(F)c(-c2nn(C)c(OC(F)F)c2Cl)c1NC(=O)c1ccc(F)cc1 [Compound 1-263] | 90 | 98 | 100 | 100 | 100 | 100 | 40 | 30 | 0 | 10 | 98 | 98 | 100 | 100 | 100 | 70 | 30 | 60 | 50 |
| COc1c(Cl)cc(F)c(-c2nn(C)c(OC(F)F)c2Cl)c1NC(=O)COCc1ccccc1 [Compound 1-45] | 0 | 90 | 40 | 100 | 0 | 30 | 30 | 10 | 0 | 0 | 95 | 70 | 90 | 100 | 100 | 80 | 40 | 40 | 60 |
| COc1c(Cl)cc(F)c(-c2nn(C)c(OC(F)F)c2Cl)c1NC(=O)C(C)(C)OC(C)=O [Compound 1-44] | 10 | 100 | 20 | 100 | 100 | 60 | 10 | 10 | 0 | 0 | 50 | 60 | 80 | 100 | 100 | 50 | 20 | 10 | 40 |
| COc1c(Cl)cc(F)c(-c2nn(C)c(OC(F)F)c2Cl)c1NC(=O)c1cccc(C(F)(F)F)c1 [Compound 1-262] | 0 | 30 | 30 | 100 | 30 | 20 | 10 | 0 | 0 | 0 | 60 | 40 | 80 | 100 | 100 | 30 | 30 | 40 | 50 |
